# Measurements: ChEMBL document CHEMBL1201861, “Genomics of Drug Sensitity in Cancer screening data, Wellcome Trust Sanger Institute”
# Legend:
# Assay in all cases: cells
# KYSE-510 = assay type: functional, cell-based, Homo sapiens; conditions: Homo sapiens, KYSE-510;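 further: cell viability readout used to measure how strongly growth of the cell line is suppressed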
# Description: SANGER: Inhibition of human KYSE-510 cell growth in a cell viability assay.
# GB-1 = assay type: functional, cell-based, Homo sapiens; conditions: Homo sapiens, GB-1;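 further: growth of GB-1 cells judged by a viability assay, IC50 marks the concentration inhibiting growth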
# Description: SANGER: Inhibition of human GB-1 cell growth in a cell viability assay.
# LOX IMVI = assay type: functional, cell-based; conditions: Homo sapiens
# Description: SANGER: Inhibition of human LOXIMVI cell growth in a cell viability assay.
# 8505C = assay type: functional, cell-based, Homo sapiens; conditions: Homo sapiens, 8505C
# Description: SANGER: Inhibition of human 8505C cell growth in a cell viability assay.
# SW-620 = assay type: functional, cell-based, Homo sapiens; conditions: Homo sapiens, SW-620;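 further: growth inhibition of human SW-620 cells, measured by a cell viability assay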
# Description: SANGER: Inhibition of human SW620 cell growth in a cell viability assay.
# A2780 = assay type: functional, cell-based, Homo sapiens; conditions: Homo sapiens, A2780;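 further: growth inhibition of A2780 cells, read out with a cell viability assay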
# Description: SANGER: Inhibition of human A2780 cell growth in a cell viability assay.
# NCI-H1355 = assay type: functional, cell-based, Homo sapiens; conditions: Homo sapiens, NCI-H1355;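 further: growth inhibition of human NCI-H1355 cells, read out by a cell viability assay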
# Description: SANGER: Inhibition of human NCI-H1355 cell growth in a cell viability assay.
# SNU-387 = assay type: functional, cell-based, Homo sapiens; conditions: Homo sapiens, SNU-387
# Description: SANGER: Inhibition of human SNU-387 cell growth in a cell viability assay.
# RKO = assay type: functional, cell-based, Homo sapiens; conditions: Homo sapiens, RKO;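 further: growth inhibition of human RKO cells, read out with a cell viability assay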
# Description: SANGER: Inhibition of human RKO cell growth in a cell viability assay.
# NCI-H1650 = assay type: functional, cell-based, Homo sapiens; conditions: Homo sapiens, NCI-H1650;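 further: growth inhibition of human NCI-H1650 cells measured by a cell viability assay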
# Description: SANGER: Inhibition of human NCI-H1650 cell growth in a cell viability assay.
# AN3-CA = assay type: functional, cell-based; conditions: Homo sapiens;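 further: growth inhibition of human AN3-CA cells measured by a cell viability assay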
# Description: SANGER: Inhibition of human AN3-CA cell growth in a cell viability assay.
# NCI-H810 = assay type: functional, cell-based, Homo sapiens; conditions: Homo sapiens, NCI-H810;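 further: IC50 reflects inhibition of cancer cell line growth, read out with a cell viability assay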
# Description: SANGER: Inhibition of human NCI-H810 cell growth in a cell viability assay.
# YAPC = assay type: functional, cell-based, Homo sapiens; conditions: Homo sapiens, YAPC;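 further: growth inhibition of YAPC cells, measured with a cell viability assay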
# Description: SANGER: Inhibition of human YAPC cell growth in a cell viability assay.
# MS-1 = assay type: functional, cell-based; conditions: Homo sapiens;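 further: growth inhibition of MS-1 cells, read out by cell viability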
# Description: SANGER: Inhibition of human MS-1 cell growth in a cell viability assay.
# SCC-25 = assay type: functional, cell-based, Homo sapiens; conditions: Homo sapiens, SCC-25;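 further: growth inhibition of SCC-25 cells, measured with a cell viability assay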
# Description: SANGER: Inhibition of human SCC-25 cell growth in a cell viability assay.
# TGBC24TKB = assay type: functional, cell-based, Homo sapiens; conditions: Homo sapiens, TGBC24TKB;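 further: growth inhibition of human TGBC24TKB cells, read out with a cell viability assay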
# Description: SANGER: Inhibition of human TGBC24TKB cell growth in a cell viability assay.
# TYK-nu = assay type: functional, cell-based, Homo sapiens; conditions: Homo sapiens, TYK-nu;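 further: growth inhibition of human TYK-nu cells, read out by a cell viability assay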
# Description: SANGER: Inhibition of human TYK-nu cell growth in a cell viability assay.
# MEG-01 = assay type: functional, cell-based; conditions: Homo sapiens;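 further: growth inhibition of MEG-01 cells, read out by a cell viability assay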
# Description: SANGER: Inhibition of human MEG-01 cell growth in a cell viability assay.
# 786-0 = assay type: functional, cell-based, Homo sapiens; conditions: Homo sapiens
# Description: SANGER: Inhibition of human 786-0 cell growth in a cell viability assay.
# HCE-T = assay type: functional, cell-based, Homo sapiens; conditions: Homo sapiens, HCE-T;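 further: cell viability assay read-out, reporting inhibition of HCE-T cell growth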
# Description: SANGER: Inhibition of human HCE-T cell growth in a cell viability assay.
# SCH = assay type: functional, cell-based, Homo sapiens; conditions: Homo sapiens, SCH;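 further: growth inhibition of human SCH cells, read out in a cell viability assay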
# Description: SANGER: Inhibition of human SCH cell growth in a cell viability assay.
# RT-112 = assay type: functional, cell-based, Homo sapiens; conditions: Homo sapiens, RT-112
# Description: SANGER: Inhibition of human RT-112 cell growth in a cell viability assay.
# CHL-1 = assay type: functional, cell-based, Homo sapiens; conditions: Homo sapiens, CHL-1;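 further: cell growth inhibition, read out with a cell viability assay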
# Description: SANGER: Inhibition of human CHL-1 cell growth in a cell viability assay.
# Capan-2 = assay type: functional, cell-based, Homo sapiens; conditions: Homo sapiens, Capan-2;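 further: Capan-2 cell growth inhibition, read out with a viability assay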
# Description: SANGER: Inhibition of human Capan-2 cell growth in a cell viability assay.
# SK-LU-1 = assay type: functional, cell-based, Homo sapiens; conditions: Homo sapiens, SK-LU-1;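 further: cell viability assay measuring growth inhibition of human SK-LU-1 cells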
# Description: SANGER: Inhibition of human SK-LU-1 cell growth in a cell viability assay.
# NCI-H520 = assay type: functional, cell-based, Homo sapiens; conditions: Homo sapiens, NCI-H520;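 further: growth inhibition of NCI-H520 cells, measured by a cell viability assay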
# Description: SANGER: Inhibition of human NCI-H520 cell growth in a cell viability assay.
# KYSE-520 cell line = assay type: functional, cell-based, Homo sapiens; conditions: Homo sapiens, KYSE-520;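 further: growth inhibition of human KYSE-520 cells, read out with a viability assay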
# Description: SANGER: Inhibition of human KYSE-520 cell growth in a cell viability assay.
# HCC1954 = assay type: functional, cell-based, Homo sapiens; conditions: Homo sapiens, HCC1954;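 further: growth inhibition of human HCC1954 cells, read out with a cell viability assay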
# Description: SANGER: Inhibition of human HCC1954 cell growth in a cell viability assay.
# LC-2-ad = assay type: functional, cell-based, Homo sapiens; conditions: Homo sapiens, LC-2-ad;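 further: growth inhibition of human LC-2-ad cells, read out with a cell viability assay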
# Description: SANGER: Inhibition of human LC-2-ad cell growth in a cell viability assay.
# KNS-81-FD = assay type: functional, cell-based, Homo sapiens; conditions: Homo sapiens, KNS-81-FD;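 further: growth inhibition of KNS-81-FD cells, read out with a cell viability assay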
# Description: SANGER: Inhibition of human KNS-81-FD cell growth in a cell viability assay.
# ES7 = assay type: functional, cell-based, Homo sapiens; conditions: Homo sapiens, ES7;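 further: growth inhibition of cultured human ES7 cells, read out as cell viability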
# Description: SANGER: Inhibition of human ES7 cell growth in a cell viability assay.
# TGW = assay type: functional, cell-based; conditions: Homo sapiens;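 further: growth inhibition of human TGW cells, read out with a cell viability assay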
# Description: SANGER: Inhibition of human TGW cell growth in a cell viability assay.
# LoVo = assay type: functional, cell-based; conditions: Homo sapiens;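 further: growth inhibition of human LoVo cells, read out with a cell viability assay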
# Description: SANGER: Inhibition of human LoVo cell growth in a cell viability assay.
# OVCAR-3 = assay type: functional, cell-based, Homo sapiens; conditions: Homo sapiens, OVCAR-3;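 further: growth inhibition of human OVCAR-3 cells, determined by a cell viability assay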
# Description: SANGER: Inhibition of human OVCAR-3 cell growth in a cell viability assay.
# SK-MEL-24 = assay type: functional, cell-based; conditions: Homo sapiens;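 further: growth inhibition read out by a cell viability assay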
# Description: SANGER: Inhibition of human SK-MEL-24 cell growth in a cell viability assay.
# TE-10 = assay type: functional, cell-based, Homo sapiens; conditions: Homo sapiens, TE-10;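 further: growth inhibition of TE-10 cells, measured by a cell viability assay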
# Description: SANGER: Inhibition of human TE-10 cell growth in a cell viability assay.
# NB10 = assay type: functional, cell-based, Homo sapiens; conditions: Homo sapiens, NB10;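 further: growth inhibition of NB10 cells, read out by a cell viability assay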
# Description: SANGER: Inhibition of human NB10 cell growth in a cell viability assay.
# MN-60 = assay type: functional, cell-based; conditions: Homo sapiens;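 further: growth inhibition of the MN-60 cell line, determined with a cell viability assay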
# Description: SANGER: Inhibition of human MN-60 cell growth in a cell viability assay.
# L-363 = assay type: functional, cell-based; conditions: Homo sapiens
# Description: SANGER: Inhibition of human L-363 cell growth in a cell viability assay.
# SJSA-1 = assay type: functional, cell-based, Homo sapiens; conditions: Homo sapiens, SJSA-1;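 further: growth inhibition of human SJSA-1 cells, read out through a cell viability measurement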
# Description: SANGER: Inhibition of human SJSA-1 cell growth in a cell viability assay.
# KYSE-70 cell line = assay type: functional, cell-based, Homo sapiens; conditions: Homo sapiens, KYSE-70;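 further: cell viability assay read-out, with IC50 expressing suppression of KYSE-70 cell growth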
# Description: SANGER: Inhibition of human KYSE-70 cell growth in a cell viability assay.
# NB7 = assay type: functional, cell-based; conditions: Homo sapiens;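 further: growth inhibition of NB7 cells, read out with a cell viability assay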
# Description: SANGER: Inhibition of human NB7 cell growth in a cell viability assay.
# HuP-T4 = assay type: functional, cell-based, Homo sapiens; conditions: Homo sapiens, HuP-T4;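 further: cell viability assay measuring how much HuP-T4 cell growth is inhibited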
# Description: SANGER: Inhibition of human HuP-T4 cell growth in a cell viability assay.
# FTC-133 = assay type: functional, cell-based, Homo sapiens; conditions: Homo sapiens, FTC-133
# BB49-HNC = assay type: functional, cell-based, Homo sapiens; conditions: Homo sapiens, BB49-HNC;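 further: cell viability assay read-out, reported as inhibition of BB49-HNC cell growth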
# Description: SANGER: Inhibition of human BB49-HNC cell growth in a cell viability assay.
# SF-126 = assay type: functional, cell-based, Homo sapiens; conditions: Homo sapiens, SF-126;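 further: growth inhibition of human SF126 cells, read out with a cell viability assay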
# Description: SANGER: Inhibition of human SF126 cell growth in a cell viability assay.
# JVM-3 = assay type: functional, cell-based; conditions: Homo sapiens;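 further: growth inhibition of human JVM-3 cells, read out with a cell viability assay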
# Description: SANGER: Inhibition of human JVM-3 cell growth in a cell viability assay.
# OCI-AML2 = assay type: functional, cell-based; conditions: Homo sapiens;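 further: growth inhibition of OCI-AML2 cells, read out with a cell viability assay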
# Description: SANGER: Inhibition of human OCI-AML2 cell growth in a cell viability assay.
# ES5 = assay type: functional, cell-based, Homo sapiens; conditions: Homo sapiens, ES5;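 further: growth inhibition of human ES5 cells, read out by a cell viability assay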
# Description: SANGER: Inhibition of human ES5 cell growth in a cell viability assay.
# SNU-5 = assay type: functional, cell-based; conditions: Homo sapiens;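 further: cell viability readout used to measure growth inhibition in human NCI-SNU-5 cells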
# Description: SANGER: Inhibition of human NCI-SNU-5 cell growth in a cell viability assay.
# KP-N-YN = assay type: functional, cell-based; conditions: Homo sapiens;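 further: growth inhibition of KP-N-YN cells, read out with a cell viability assay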
# Description: SANGER: Inhibition of human KP-N-YN cell growth in a cell viability assay.
# HMV-2 cell line = assay type: functional, cell-based, Homo sapiens; conditions: Homo sapiens, HMV-2;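 further: growth inhibition of HMV-II cells, read out with a cell viability assay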
# Description: SANGER: Inhibition of human HMV-II cell growth in a cell viability assay.
# HuTu80 = assay type: functional, cell-based, Homo sapiens, HUTU-80; conditions: Homo sapiens, HuTu80;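 further: growth inhibition of HuTu80 human cells, determined with a cell viability readout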
# Description: SANGER: Inhibition of human HUTU-80 cell growth in a cell viability assay.
smiles,measurement,setting,value
COc1cc(F)c(F)c(Nc2ccc(I)cc2F)c1NS(=O)(=O)C1(CC(O)CO)CC1 (stereo unspecified),IC50,KYSE-510,> 5 µM
same,IC50,GB-1,3.6 µM
same,IC50,LOX IMVI,0.477 µM
same,IC50,8505C,2.58 µM
same,IC50,SW-620,0.276 µM
same,IC50,A2780,> 5 µM
same,IC50,NCI-H1355,> 5 µM
same,IC50,SNU-387,2.42 µM
same,IC50,RKO,1.39 µM
same,IC50,NCI-H1650,> 5 µM
same,IC50,AN3-CA,> 5 µM
same,IC50,NCI-H810,> 5 µM
same,IC50,YAPC,> 5 µM
same,IC50,MS-1,> 5 µM
same,IC50,SCC-25,0.49 µM
same,IC50,TGBC24TKB,> 5 µM
same,IC50,TYK-nu,0.441 µM
same,IC50,MEG-01,0.786 µM
same,IC50,786-0,2.37 µM
same,IC50,HCE-T,> 5 µM
same,IC50,SCH,> 5 µM
same,IC50,RT-112,1.59 µM
same,IC50,CHL-1,1.18 µM
same,IC50,Capan-2,> 5 µM
same,IC50,SK-LU-1,> 5 µM
same,IC50,NCI-H520,> 5 µM
same,IC50,KYSE-520 cell line,2.96 µM
same,IC50,HCC1954,> 5 µM
same,IC50,LC-2-ad,> 5 µM
same,IC50,KNS-81-FD,2.41 µM
same,IC50,ES7,> 5 µM
same,IC50,TGW,> 5 µM
same,IC50,LoVo,0.396 µM
same,IC50,OVCAR-3,> 5 µM
same,IC50,SK-MEL-24,> 5 µM
same,IC50,TE-10,> 5 µM
same,IC50,NB10,> 5 µM
same,IC50,MN-60,> 5 µM
same,IC50,L-363,> 5 µM
same,IC50,SJSA-1,0.158 µM
same,IC50,KYSE-70 cell line,> 5 µM
same,IC50,NB7,4.71 µM
same,IC50,HuP-T4,0.514 µM
same,IC50,FTC-133,4.55 µM
same,IC50,BB49-HNC,> 5 µM
same,IC50,SF-126,> 5 µM
same,IC50,JVM-3,4.38 µM
same,IC50,OCI-AML2,> 5 µM
same,IC50,ES5,> 5 µM
same,IC50,SNU-5,4.51 µM
same,IC50,KP-N-YN,> 5 µM
COC(=O)CNC(=O)C(=O)OC,IC50,KYSE-510,112 µM
same,IC50,GB-1,94 µM
same,IC50,HMV-2 cell line,> 4000 µM
same,IC50,LOX IMVI,344 µM
same,IC50,8505C,678 µM
same,IC50,HuTu80,1260 µM
same,IC50,SW-620,3230 µM
same,IC50,A2780,2030 µM
same,IC50,NCI-H1355,274 µM
same,IC50,SNU-387,220 µM
same,IC50,RKO,2460 µM
same,IC50,NCI-H1650,329 µM
same,IC50,AN3-CA,209 µM
same,IC50,NCI-H810,630 µM
same,IC50,YAPC,> 4000 µM
same,IC50,MS-1,878 µM
same,IC50,SCC-25,1230 µM
same,IC50,TGBC24TKB,> 4000 µM
same,IC50,MEG-01,484 µM
same,IC50,786-0,> 4000 µM
same,IC50,HCE-T,3440 µM
same,IC50,SCH,> 4000 µM
same,IC50,RT-112,176 µM
same,IC50,CHL-1,917 µM
same,IC50,Capan-2,338 µM
same,IC50,SK-LU-1,66 µM
same,IC50,NCI-H520,398 µM
same,IC50,KYSE-520 cell line,613 µM
same,IC50,HCC1954,900 µM
same,IC50,LC-2-ad,24.6 µM
same,IC50,KNS-81-FD,1850 µM
same,IC50,ES7,478 µM
same,IC50,TGW,> 4000 µM
same,IC50,LoVo,951 µM
same,IC50,OVCAR-3,206 µM
same,IC50,SK-MEL-24,> 4000 µM
same,IC50,TE-10,629 µM
same,IC50,NB10,524 µM
same,IC50,MN-60,147 µM
same,IC50,L-363,150 µM
same,IC50,SJSA-1,278 µM
same,IC50,KYSE-70 cell line,551 µM
same,IC50,HuP-T4,128 µM
same,IC50,FTC-133,> 4000 µM
same,IC50,BB49-HNC,611 µM
same,IC50,SF-126,220 µM
same,IC50,JVM-3,> 4000 µM
same,IC50,OCI-AML2,501 µM
same,IC50,ES5,> 4000 µM
same,IC50,SNU-5,> 4000 µM
